The NIST ThermoML archive (doi:10.1016/j.jct.2015.07.014)

Test: xn = mol fraction of the nth substance listed
Details: Fluid (supercritical or subcritical phases), Buoyancy - hydrostatic balance with magnetic suspension - one sinker

N#N [nitrogen] + O=C=O
mass density [kg/m3]
Details | x1 = 0.95 | x1 = 0.99
298.11 K, 30854 kPa | 318.784 | –
298.15 K, 30889 kPa | – | 306.308
298.18 K, 10974 kPa | 128.536 | –
298.18 K, 26965 kPa | – | 276.485
298.18 K, 28960 kPa | 304.08 | 291.991
298.19 K, 10975 kPa | – | 124.2
298.19 K, 12974 kPa | 151.108 | –
298.19 K, 12977 kPa | – | 145.801
298.19 K, 14973 kPa | 173.056 | –
298.19 K, 14975 kPa | – | 166.746
298.19 K, 16968 kPa | 194.247 | –
298.19 K, 16973 kPa | – | 186.99
298.19 K, 18971 kPa | 214.733 | 206.482
298.19 K, 20971 kPa | – | 225.196
298.19 K, 20972 kPa | 234.34 | –
298.19 K, 22968 kPa | 253.055 | –
298.19 K, 22969 kPa | – | 243.092
298.19 K, 24966 kPa | 270.906 | –
298.19 K, 24967 kPa | – | 260.186
298.19 K, 26964 kPa | 287.919 | –
323.18 K, 10979 kPa | 116.684 | –
323.18 K, 14973 kPa | 156.725 | –
323.18 K, 28962 kPa | – | 266.975
323.18 K, 30957 kPa | 291.768 | 280.954
323.19 K, 12977 kPa | 136.963 | –
323.19 K, 14974 kPa | – | 151.425
323.19 K, 20974 kPa | 212.443 | –
323.19 K, 22968 kPa | 229.628 | –
323.19 K, 24967 kPa | 246.174 | –
323.19 K, 24968 kPa | – | 237.145
323.19 K, 26966 kPa | – | 252.374
323.19 K, 28961 kPa | 277.225 | –
323.2 K, 12978 kPa | – | 132.477
323.2 K, 16971 kPa | 175.903 | –
323.2 K, 16973 kPa | – | 169.822
323.2 K, 18972 kPa | 194.494 | –
323.2 K, 18975 kPa | – | 187.629
323.2 K, 20974 kPa | – | 204.784
323.2 K, 22971 kPa | – | 221.285
323.2 K, 26964 kPa | 262.031 | –
323.21 K, 10980 kPa | – | 112.998
348.15 K, 14974 kPa | 143.613 | –
348.16 K, 12976 kPa | 125.56 | –
348.16 K, 26965 kPa | – | 232.594
348.16 K, 28963 kPa | – | 246.335
348.17 K, 10975 kPa | 107.02 | 103.828
348.18 K, 12974 kPa | – | 121.664
348.18 K, 20972 kPa | – | 188.207
348.18 K, 24966 kPa | – | 218.313
348.18 K, 30959 kPa | – | 259.551
348.19 K, 16972 kPa | 161.157 | –
348.19 K, 18968 kPa | – | 172.299
348.19 K, 30958 kPa | 268.893 | –
348.2 K, 14978 kPa | – | 139.081
348.2 K, 22973 kPa | – | 203.544
348.2 K, 26965 kPa | 240.883 | –
348.21 K, 16969 kPa | – | 155.902
348.21 K, 22970 kPa | 210.667 | –
348.21 K, 24968 kPa | 226.054 | –
348.22 K, 18976 kPa | 178.236 | –
348.23 K, 20969 kPa | 194.689 | –
348.24 K, 28961 kPa | 255.123 | –
373.11 K, 14975 kPa | 132.811 | –
373.14 K, 10975 kPa | 99.052 | –
373.14 K, 10978 kPa | – | 96.257
373.14 K, 24968 kPa | – | 202.615
373.14 K, 26966 kPa | – | 216.025
373.16 K, 20970 kPa | 180.142 | –
373.16 K, 28962 kPa | – | 228.969
373.17 K, 12975 kPa | 116.113 | –
373.17 K, 12978 kPa | – | 112.737
373.17 K, 30957 kPa | 249.734 | –
373.18 K, 14973 kPa | – | 128.781
373.18 K, 16969 kPa | 148.99 | –
373.19 K, 18968 kPa | 164.767 | –
373.19 K, 22970 kPa | 194.991 | –
373.19 K, 24968 kPa | 209.378 | –
373.19 K, 26966 kPa | 223.295 | –
373.19 K, 30958 kPa | – | 241.48
373.2 K, 16976 kPa | – | 144.455
373.2 K, 18972 kPa | – | 159.653
373.2 K, 22969 kPa | – | 188.731
373.2 K, 28961 kPa | 236.723 | –
373.21 K, 20974 kPa | – | 174.438
398.12 K, 10979 kPa | 92.339 | –
398.15 K, 16976 kPa | – | 134.736
398.17 K, 10981 kPa | – | 89.797
398.17 K, 26965 kPa | – | 201.89
398.17 K, 30957 kPa | – | 226.029
398.17 K, 30958 kPa | 233.41 | –
398.18 K, 28962 kPa | 221.089 | –
398.18 K, 28963 kPa | – | 214.146
398.19 K, 14974 kPa | – | 120.089
398.19 K, 20968 kPa | – | 162.734
398.2 K, 12973 kPa | 108.135 | –
398.2 K, 14975 kPa | 123.655 | –
398.2 K, 18973 kPa | – | 148.923
398.2 K, 22966 kPa | – | 176.162
398.2 K, 24970 kPa | – | 189.239
398.21 K, 18973 kPa | 153.504 | –
398.21 K, 22970 kPa | 181.754 | –
398.21 K, 24969 kPa | 195.274 | –
398.21 K, 26967 kPa | 208.381 | –
398.22 K, 12974 kPa | – | 105.084
398.22 K, 20969 kPa | 167.809 | –
398.23 K, 16974 kPa | 138.767 | –
423.11 K, 14972 kPa | – | 112.628
423.13 K, 24967 kPa | 183.194 | –
423.13 K, 26965 kPa | 195.591 | –
423.13 K, 28962 kPa | 207.636 | –
423.13 K, 30956 kPa | 219.326 | –
423.14 K, 22965 kPa | 170.413 | –
423.16 K, 16970 kPa | – | 126.322
423.16 K, 18970 kPa | 143.837 | –
423.16 K, 20971 kPa | 157.318 | –
423.17 K, 12979 kPa | – | 98.597
423.17 K, 18968 kPa | – | 139.677
423.18 K, 10978 kPa | 86.517 | –
423.18 K, 10979 kPa | – | 84.203
423.18 K, 12971 kPa | 101.311 | –
423.18 K, 14973 kPa | 115.841 | –
423.18 K, 16967 kPa | 129.977 | –
423.18 K, 20972 kPa | – | 152.731
423.18 K, 30957 kPa | – | 212.642
423.19 K, 22973 kPa | – | 165.419
423.21 K, 24968 kPa | – | 177.709
423.21 K, 28961 kPa | – | 201.322
423.22 K, 26966 kPa | – | 189.691
